According to ChEMBL document CHEMBL1135617, “Dicarboxylic acid bis(L-prolyl-pyrrolidine) amides as prolyl oligopeptidase inhibitors” (J Med Chem, 2002):

Assays:
[1] = biological target: T1, Prolyl endopeptidase (Sus scrofa, UniProt P23687); assay: In vitro inhibitory activity against prolyl oligopeptidase (POP) from pig brain; value ranges from (7800-54000)
[2] = biological target: T1, Prolyl endopeptidase
[3] = biological target: T1, Prolyl endopeptidase; assay: In vitro inhibitory activity against prolyl oligopeptidase (POP) from pig brain; value ranges from (72-92)
[4] = biological target: T1, Prolyl endopeptidase; assay: In vitro inhibitory activity against prolyl oligopeptidase (POP) from pig brain; value ranges from (38-110)
[5] = biological target: T1, Prolyl endopeptidase; assay: In vitro inhibitory activity against prolyl oligopeptidase (POP) from pig brain; value ranges from (59 - 100)
[6] = biological target: T1, Prolyl endopeptidase; assay: In vitro inhibitory activity against prolyl oligopeptidase (POP) from pig brain; value ranges from (44-110)

T1 sequence (P23687 whole entry): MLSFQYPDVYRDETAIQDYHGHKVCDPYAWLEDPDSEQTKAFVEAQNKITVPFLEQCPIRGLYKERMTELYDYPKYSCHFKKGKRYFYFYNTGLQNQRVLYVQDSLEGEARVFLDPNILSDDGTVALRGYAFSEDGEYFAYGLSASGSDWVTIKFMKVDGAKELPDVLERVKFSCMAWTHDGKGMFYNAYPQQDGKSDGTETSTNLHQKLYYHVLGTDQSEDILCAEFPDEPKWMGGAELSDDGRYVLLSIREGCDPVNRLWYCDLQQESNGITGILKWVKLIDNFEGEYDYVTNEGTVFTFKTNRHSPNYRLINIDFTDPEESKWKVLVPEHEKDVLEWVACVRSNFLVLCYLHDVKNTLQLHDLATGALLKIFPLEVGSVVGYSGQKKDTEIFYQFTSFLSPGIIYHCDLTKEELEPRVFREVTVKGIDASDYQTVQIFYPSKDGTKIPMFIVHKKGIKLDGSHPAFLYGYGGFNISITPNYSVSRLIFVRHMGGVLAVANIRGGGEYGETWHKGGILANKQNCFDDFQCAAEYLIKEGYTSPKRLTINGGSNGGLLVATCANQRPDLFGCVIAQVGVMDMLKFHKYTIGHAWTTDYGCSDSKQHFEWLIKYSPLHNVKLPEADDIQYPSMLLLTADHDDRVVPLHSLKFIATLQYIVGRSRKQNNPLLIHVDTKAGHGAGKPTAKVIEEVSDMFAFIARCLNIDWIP

Question: How did the IC50 [1] turn out when `O=C(C1CCCN1C(=O)c1ccccc1C(=O)N1CCC[C@H]1C(=O)N1CCCC1)N1CCCC1` (stereo partly specified) was run?
Answer: 21000 nM

Question: For `O=C(CO)[C@@H]1CCCN1C(=O)[C@@H]1CCCN1C(=O)c1cccc(C(=O)N2CCCC2C(=O)N2CCCC2)c1` (stereo partly specified), which IC50 [2] is on record?
Answer: 0.39 nM

Question: `O=C(C1CCCN1C(=O)c1ccc(C(=O)N2CCC[C@H]2C(=O)N2CCCC2)cc1)N1CCCC1` (stereo partly specified) was tested. Which IC50 [3] did it give?
Answer: 81 nM

Question: How did the IC50 [4] turn out when `O=C([C@@H]1CCCN1C(=O)c1ccccc1)N1CCCC1` was run?
Answer: 66 nM

Question: With `O=C(C1CCCN1C(=O)CCC(=O)N1CCC[C@H]1C(=O)N1CCCC1)N1CCCC1` (stereo partly specified) as the compound, how does the IC50 [5] read?
Answer: 77 nM

Question: `O=C(C1CCCN1C(=O)CCCCC(=O)N1CCC[C@H]1C(=O)N1CCCC1)N1CCCC1` (stereo partly specified) was tested. Which IC50 [6] did it give?
Answer: 68 nM
